The nature of data set [1]: Stability studies (shelf life, visible changes). Particulars: visible changes; for Stability of Actives at 40° C.: 40° C. accelerated stability. The format is physicochemical. Here is the method:
The effects of HPBCD on the shelf life stability of each active agent is studied at pre-determined temperatures for 11 weeks. Real time stability is observed at −17° C., 5° C. and 25° C., and accelerated stability is observed at 40° C. For accelerated stability, one day at 40° C. is equivalent to one week, thus the data represents 77 weeks. […] The vials are then placed in a temperature-controlled oven or refrigerator/freezer. The compounds are checked daily and any visible changes are noted.

The conditions of data set [2]: cited from earlier work.

Each structure is given as a SMILES string.

As to `CC(O)COC[C@H]1O[C@@H]2O[C@H]3[C@H](O)[C@@H](O)[C@@H](O[C@H]4[C@H](O)[C@@H](O)[C@@H](O[C@H]5[C@H](O)[C@@H](O)[C@@H](O[C@H]6[C@H](O)[C@@H](O)[C@@H](O[C@H]7[C@H](O)[C@@H](O)[C@@H](O[C@H]8[C@H](O)[C@@H](O)[C@@H](O[C@H]1[C@H](O)[C@H]2O)O[C@@H]8COCC(C)O)O[C@@H]7COCC(C)O)O[C@@H]6COCC(C)O)O[C@@H]5COCC(C)O)O[C@@H]4COCC(C)O)O[C@@H]3COCC(C)O` (stereo partly drawn) [HPBCD, Hydroxypropyl β-cyclodextrin], the “Stability of Actives at 5° C.” value in data set [1] (Week 1), in data set [1] (Week 2), in data set [1] (Week 3), in data set [1] (Week 4), in data set [1] (Week 5) and in data set [1] (Week 6) was 0 each time. Also, the “Stability of Actives at 5° C.” value in data set [1] (Week 7), in data set [1] (Week 8), in data set [1] (Week 9), in data set [1] (Week 10) and in data set [1] (Week 11) was 0 throughout. Further, the “Stability of Actives at 25° C.” value in data set [1] (Week 1), in data set [1] (Week 2), in data set [1] (Week 3), in data set [1] (Week 4), in data set [1] (Week 5) and in data set [1] (Week 6) was 0 each time. Moreover, the “Stability of Actives at 25° C.” value in data set [1] (Week 7), in data set [1] (Week 8), in data set [1] (Week 9), in data set [1] (Week 10) and in data set [1] (Week 11) was 0 throughout. The “Stability of Actives at 40° C.” value in data set [1] (Week 1), in data set [1] (Week 2), in data set [1] (Week 3), in data set [1] (Week 4), in data set [1] (Week 5) and in data set [1] (Week 6) was 0 each time. The “Stability of Actives at 40° C.” value in data set [1] (Week 7), in data set [1] (Week 8), in data set [1] (Week 9), in data set [1] (Week 10) and in data set [1] (Week 11) was 0 throughout. In data set [2], the aqueous solubility entry is “more than 60 g/100 mL”.
Consider `OC[C@H]1O[C@@H]2O[C@H]3[C@H](O)[C@@H](O)[C@@H](O[C@H]4[C@H](O)[C@@H](O)[C@@H](O[C@H]5[C@H](O)[C@@H](O)[C@@H](O[C@H]6[C@H](O)[C@@H](O)[C@@H](O[C@H]7[C@H](O)[C@@H](O)[C@@H](O[C@H]8[C@H](O)[C@@H](O)[C@@H](O[C@H]1[C@H](O)[C@H]2O)O[C@@H]8CO)O[C@@H]7CO)O[C@@H]6CO)O[C@@H]5CO)O[C@@H]4CO)O[C@@H]3CO` [β-Cyclodextrin], for which the solubility in water result in data set [2] (room temperature) is listed as “approximately 19 mg/mL”.
`Nc1cc(N2CCCCC2)nc(N)[n+]1[O-]` [Minoxidil]: the “Stability of Actives at 5° C.” value in data set [1] (Week 1), in data set [1] (Week 2), in data set [1] (Week 3), in data set [1] (Week 4), in data set [1] (Week 5) and in data set [1] (Week 6) was 0 throughout. The “Stability of Actives at 5° C.” value in data set [1] (Week 7), in data set [1] (Week 8), in data set [1] (Week 9), in data set [1] (Week 10) and in data set [1] (Week 11) was 0 in each case. For the same compound, the “Stability of Actives at 25° C.” value in data set [1] (Week 1), in data set [1] (Week 2), in data set [1] (Week 3), in data set [1] (Week 4), in data set [1] (Week 5) and in data set [1] (Week 6) was 0 throughout. Besides, the “Stability of Actives at 25° C.” value in data set [1] (Week 7), in data set [1] (Week 8), in data set [1] (Week 9), in data set [1] (Week 10) and in data set [1] (Week 11) was 0 in each case. Besides, the “Stability of Actives at 40° C.” value in data set [1] (Week 1), in data set [1] (Week 2), in data set [1] (Week 3), in data set [1] (Week 4), in data set [1] (Week 5) and in data set [1] (Week 6) was 0 each time. Also, the “Stability of Actives at 40° C.” value in data set [1] (Week 7), in data set [1] (Week 8), in data set [1] (Week 9), in data set [1] (Week 10) and in data set [1] (Week 11) was 0 throughout.
